The target in the assay is SMYD3 (Homo sapiens (Human), UniProt Q9H7B4). Briefly: SMYD3 biochemical assay (SPA, 3H-SAM methylation of MEKK2 protein substrate). The following applies: read-out: SMYD3 Biochem IC50 (μM)*. In a few lines:
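Methylation of N-terminally GST-tagged MEKK2 by untagged full-length human SMYD3, using 3H-SAM, in pH 8.0 Tris buffer with TCEP, BSG and Tween 20; enzyme and compound sat 30 min at room temperature before substrate addition. Stopped with 100 uM (final) cold SAM; incorporation read by scintillation proximity as dpm/cpm.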

From US10577363B2, “Substituted piperidine compounds” (EPIZYME, INC., priority 2014, dated 2020) come the findings set out here.

On to `C[C@H]1C[C@H](NC(=O)c2cc(C3CC3)on2)CCN1S(=O)(=O)CCC(F)(F)F` [compound 292, 5-cyclopropyl-N-((2S,4R)-2-methyl-1-((3,3,3-trifluoropropyl)sulfonyl)piperidin-4-yl)isoxazole-3-carboxamide], for which the IC50 was more than 10 µM.
The result for `CC(C)OCCS(=O)(=O)N1CC[C@@H](NC(=O)c2cc(C3CC3)on2)C[C@H]1C` [compound 296, 5-cyclopropyl-N-((2R,4R)-1-((2-isopropoxyethyl)sulfonyl)-2-methylpiperidin-4-yl)isoxazole-3-carboxamide] reads 5.97 µM; that for `CC[C@@H]1CN(C(=O)CCCN)CC[C@@H]1NC(=O)c1cc(C2CC2)on1` [compound 297, N-((3R,4S)-1-(4-aminobutanoyl)-3-ethylpiperidin-4-yl)-5-cyclopropylisoxazole-3-carboxamide], 1.8 µM; that for `CC[C@@H]1CN(C(=O)CCCN)CC[C@H]1NC(=O)c1cc(C2CC2)on1` [compound 298, N-((3R,4R)-1-(4-aminobutanoyl)-3-ethylpiperidin-4-yl)-5-cyclopropylisoxazole-3-carboxamide], 6.1 µM.
`CC[C@H]1CN(C(=O)CCCN)CC[C@H]1NC(=O)c1cc(C2CC2)on1` [compound 299, N-((3S,4R)-1-(4-aminobutanoyl)-3-ethylpiperidin-4-yl)-5-cyclopropylisoxazole-3-carboxamide]: the 50% inhibitory concentration (IC50) amounted to 0.989 µM.
In the case of `CC[C@H]1CN(C(=O)CCCN)CC[C@@H]1NC(=O)c1cc(C2CC2)on1` [compound 300, N-((3S,4S)-1-(4-aminobutanoyl)-3-ethylpiperidin-4-yl)-5-cyclopropylisoxazole-3-carboxamide] it was 3.6 µM; in that of `NCCCC(=O)N1CCC(NC(=O)c2cc(C3CC3)on2)CC12CCCCC2` (stereo not drawn) [compound 301, N-(1-(4-aminobutanoyl)-1-azaspiro[5.5]undecan-4-yl)-5-cyclopropylisoxazole-3-carboxamide], 6.47 µM.
In the case of `CC[C@@H]1CC(NC(=O)c2cc(C3CC3)on2)C[C@H](CC)N1C(=O)CCCN` (stereo partly drawn) [compound 302, N-((2S,6R)-1-(4-aminobutanoyl)-2,6-diethylpiperidin-4-yl)-5-cyclopropylisoxazole-3-carboxamide] it was 6.93 µM; in that of `CC1CN(C(=O)[C@H]2CC[C@H](N)CC2)CC(C)C1NC(=O)c1cc(C2CC2)on1` (stereo partly drawn) [compound 303, N-(1-((1r,4r)-4-aminocyclohexane-1-carbonyl)-3,5-dimethylpiperidin-4-yl)-5-cyclopropylisoxazole-3-carboxamide], 1.78 µM; in that of `N[C@H]1CC[C@H](C(=O)N2CCC(NC(=O)c3cc(C4CC4)on3)C(C(F)(F)F)C2)CC1` (stereo partly drawn) [compound 304, N-(1-((1r,4r)-4-aminocyclohexane-1-carbonyl)-3-(trifluoromethyl)piperidin-4-yl)-5-cyclopropylisoxazole-3-carboxamide], 2.04 µM.
In the case of `C[C@H](C(=O)N1CC[C@@H](NC(=O)c2cc(C3CC3)on2)C[C@H]1C)C1CCNCC1` [compound 305, 5-cyclopropyl-N-((2R,4R)-2-methyl-1-((S)-2-(piperidin-4-yl)propanoyl)piperidin-4-yl)isoxazole-3-carboxamide] it was 1.17 µM; in that of `C[C@@H]1C[C@H](NC(=O)c2cc(C3CC3)on2)CCN1C(=O)[C@H](C)C1CCNCC1` [compound 306, 5-cyclopropyl-N-((2R,4R)-2-methyl-1-((R)-2-(piperidin-4-yl)propanoyl)piperidin-4-yl)isoxazole-3-carboxamide], 0.852 µM.
In the case of `C[C@H](C(=O)N1CC[C@H](NC(=O)c2cc(C3CC3)on2)C[C@H]1C)C1CCNCC1` [compound 307, 5-cyclopropyl-N-((2R,4S)-2-methyl-1-((S)-2-(piperidin-4-yl)propanoyl)piperidin-4-yl)isoxazole-3-carboxamide], the concentration for half-maximal inhibition (IC50) is 0.928 µM.
For the molecule `C[C@@H]1C[C@@H](NC(=O)c2cc(C3CC3)on2)CCN1C(=O)[C@H](C)C1CCNCC1` [compound 308, 5-cyclopropyl-N-((2R,4S)-2-methyl-1-((R)-2-(piperidin-4-yl)propanoyl)piperidin-4-yl)isoxazole-3-carboxamide], the IC50 was 0.179 µM.
Take `C[C@H]1C[C@H](NC(=O)c2cc(C3CC3)on2)CCN1C(=O)CC(C)(C)CN` [compound 311, N-((2S,4R)-1-(4-amino-3,3-dimethylbutanoyl)-2-methylpiperidin-4-yl)-5-cyclopropylisoxazole-3-carboxamide]: the IC50 came out at 1.62 µM.
In the case of `C[C@@H]1C[C@H](NC(=O)c2cc(C3CC3)on2)CCN1C(=O)CC(C)(C)CN` [compound 312, N-((2R,4R)-1-(4-amino-3,3-dimethylbutanoyl)-2-methylpiperidin-4-yl)-5-cyclopropylisoxazole-3-carboxamide] it was 0.416 µM.
In the case of `C[C@@H]1C[C@@H](NC(=O)c2cc(C3CC3)on2)CCN1C(=O)CC(CN)c1ccccc1` (stereo partly drawn) [compound 313, N-((2R,4S)-1-(4-amino-3-phenylbutanoyl)-2-methylpiperidin-4-yl)-5-cyclopropylisoxazole-3-carboxamide] it was 5.02 µM; in that of `C[C@H]1C[C@@H](NC(=O)c2cc(C3CC3)on2)CCN1S(=O)(=O)c1ccc(Cl)nc1` [compound 318, N-((2S,4S)-1-((6-chloropyridin-3-yl)sulfonyl)-2-methylpiperidin-4-yl)-5-cyclopropylisoxazole-3-carboxamide], 1.88 µM; in that of `CCOC(=O)CS(=O)(=O)N1CC[C@H](NC(=O)c2cc(C3CC3)on2)C[C@H]1C` [compound 320, ethyl 2-(((2R,4S)-4-(5-cyclopropylisoxazole-3-carboxamido)-2-methylpiperidin-1-yl)sulfonyl)acetate], more than 10 µM.
In the case of `C[C@@H]1C[C@@H](NC(=O)c2cc(C3CC3)on2)CCN1S(=O)(=O)c1ccccn1` [compound 321, 5-cyclopropyl-N-((2R,4S)-2-methyl-1-(pyridin-2-ylsulfonyl)piperidin-4-yl)isoxazole-3-carboxamide] it was 4.47 µM; in that of `CCCS(=O)(=O)N1CC[C@@H](NC(=O)c2cc(C3CC3)on2)C[C@@H]1C` [compound 322, 5-cyclopropyl-N-((2S,4R)-2-methyl-1-(propylsulfonyl)piperidin-4-yl)isoxazole-3-carboxamide], more than 10 µM.
`CC(C)CS(=O)(=O)N1CC[C@@H](NC(=O)c2cc(C3CC3)on2)C[C@@H]1C` [compound 323, 5-cyclopropyl-N-((2S,4R)-1-(isobutylsulfonyl)-2-methylpiperidin-4-yl)isoxazole-3-carboxamide]: the IC50 is more than 10 µM.
In the case of `C[C@H]1C[C@H](NC(=O)c2cc(C3CC3)on2)CCN1S(=O)(=O)N1CCN(C)CC1` [compound 324, 5-cyclopropyl-N-((2S,4R)-2-methyl-1-((4-methylpiperazin-1-yl)sulfonyl)piperidin-4-yl)isoxazole-3-carboxamide] it was 1.65 µM; in that of `C[C@H]1C[C@H](NC(=O)c2cc(C3CC3)on2)CCN1S(=O)(=O)Cc1cccnc1` [compound 325, 5-cyclopropyl-N-((2S,4R)-2-methyl-1-((pyridin-3-ylmethyl)sulfonyl)piperidin-4-yl)isoxazole-3-carboxamide], more than 10 µM.
In the case of `C[C@H]1C[C@H](NC(=O)c2cc(C3CC3)on2)CCN1S(=O)(=O)CCc1ccccc1` [compound 326, 5-cyclopropyl-N-((2S,4R)-2-methyl-1-(phenethylsulfonyl)piperidin-4-yl)isoxazole-3-carboxamide] it was more than 10 µM.
For `COCCCS(=O)(=O)N1CC[C@@H](NC(=O)c2cc(C3CC3)on2)C[C@@H]1C` [compound 327, 5-cyclopropyl-N-((2S,4R)-1-((3-methoxypropyl)sulfonyl)-2-methylpiperidin-4-yl)isoxazole-3-carboxamide], the IC50 was more than 10 µM.
Consider `CC1CN(C(=O)CCCN)CC(C)C1NC(=O)c1cc(C2CC2)on1` (stereo not drawn) [compound 332, N-(1-(4-aminobutanoyl)-3,5-dimethylpiperidin-4-yl)-5-cyclopropylisoxazole-3-carboxamide], for which the IC50 stood at 2.53 µM.
The result for `C[C@H]1C[C@@H](NC(=O)c2cc(C3CC3)on2)CCN1C(=O)CC(CN)c1ccccc1` (stereo partly drawn) [compound 338, N-((2S,4S)-1-(4-amino-3-phenylbutanoyl)-2-methylpiperidin-4-yl)-5-cyclopropylisoxazole-3-carboxamide] reads 0.842 µM; that for `C[C@H]1C[C@H](NC(=O)c2cc(C3CC3)on2)CCN1C(=O)CC(CN)c1ccccc1` (stereo partly drawn) [compound 339, N-((2S,4R)-1-(4-amino-3-phenylbutanoyl)-2-methylpiperidin-4-yl)-5-cyclopropylisoxazole-3-carboxamide], 4.67 µM; that for `C[C@@H]1C[C@H](NC(=O)c2cc(C3CC3)on2)CCN1C(=O)C1CCCC(CN)C1` (stereo partly drawn) [compound 342, N-((2R,4R)-1-(3-(aminomethyl)cyclohexane-1-carbonyl)-2-methylpiperidin-4-yl)-5-cyclopropylisoxazole-3-carboxamide], 0.552 µM.
With `C[C@@H]1C[C@@H](NC(=O)c2cc(C3CC3)on2)CCN1C(=O)C1CCCC(CN)C1` (stereo partly drawn) [compound 343, N-((2R,4S)-1-(3-(aminomethyl)cyclohexane-1-carbonyl)-2-methylpiperidin-4-yl)-5-cyclopropylisoxazole-3-carboxamide], the IC50 is 1.07 µM.
In the case of `C[C@@H]1C[C@@H](NC(=O)c2cc(C3CC3)on2)CCN1S(=O)(=O)CCc1ccccc1` [compound 344, 5-cyclopropyl-N-((2R,4S)-2-methyl-1-(phenethylsulfonyl)piperidin-4-yl)isoxazole-3-carboxamide] it was more than 10 µM; in that of `C[C@@H]1C[C@@H](NC(=O)c2cc(C3CC3)on2)CCN1S(=O)(=O)CCC(F)(F)F` [compound 345, 5-cyclopropyl-N-((2R,4S)-2-methyl-1-((3,3,3-trifluoropropyl)sulfonyl)piperidin-4-yl)isoxazole-3-carboxamide], more than 10 µM.
